Six molecules from patent US4973592A, “1,3-diazocycloalkenes as muscarinic receptor blocking agents” (Istituto de Angeli, priority 1987, dated 1990) can be followed below.

The target of assay [1] is T1, isolated guinea pig ileum (bethanechol induced contractions) (Cavia porcellus, UniProt H0W1Z3).
T1 construct: a 2 cm piece of terminal ileum was rapidly excised; from tissue; host or cells: guinea pig terminal ileum (Dunkin Hartley)
As to the kind of experiment: antispasmodic activity on isolated guinea pig ileum with bethanechol as spasmogen. Set-up: species or system guinea pig (Dunkin Hartley). The settings on record: cumulative bethanechol 0.3-30 μM, antagonist 60 min before, Tyrode solution, 37° C.; KB from dose-ratio; read-out: Antispasmodic activity. Dissociation constants (KB) for bethanechol induced contractions in the guinea pig ileum.

Assay [2] has as its target T2, muscarinic receptors of the cerebral cortex (Rattus norvegicus, UniProt P08482).
T2 sequence (P08482 1-460): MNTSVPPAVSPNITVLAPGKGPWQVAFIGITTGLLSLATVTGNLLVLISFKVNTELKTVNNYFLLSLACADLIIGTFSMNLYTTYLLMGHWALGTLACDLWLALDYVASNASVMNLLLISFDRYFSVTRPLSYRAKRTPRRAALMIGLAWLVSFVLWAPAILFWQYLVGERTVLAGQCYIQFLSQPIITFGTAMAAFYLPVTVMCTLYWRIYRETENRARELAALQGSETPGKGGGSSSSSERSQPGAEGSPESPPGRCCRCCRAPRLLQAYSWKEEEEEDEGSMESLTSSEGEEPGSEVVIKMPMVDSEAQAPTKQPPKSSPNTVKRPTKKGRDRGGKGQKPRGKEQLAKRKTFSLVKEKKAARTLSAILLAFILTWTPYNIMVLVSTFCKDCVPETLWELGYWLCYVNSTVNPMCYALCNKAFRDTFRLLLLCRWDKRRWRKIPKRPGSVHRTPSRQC
As to the kind of experiment: biochemical. The note with it: read-out: Antimuscarinic effect. Dissociation constants (KD) for ^3 H-pirenzepine binding. More on the design: species or system male CD-COOBBS rats.

The mark [3] stands for this setting: competition against 0.5 nM ^3 H-pirenzepine, rat cerebral cortex homogenate, 45 min at 30° C., pH 7.4, corrected for radioligand occupancy shift.

The Kb is the affinity of an antagonist, worked out from how it opposes an agonist. As usually defined, the Kd is the constant that tells how readily two partners part at equilibrium.

Where a name gives a salt, the structure may show the parent alone. Read-outs that look alike come from different tables or passages of the source.

T1 sequence (H0W1Z3 1-590): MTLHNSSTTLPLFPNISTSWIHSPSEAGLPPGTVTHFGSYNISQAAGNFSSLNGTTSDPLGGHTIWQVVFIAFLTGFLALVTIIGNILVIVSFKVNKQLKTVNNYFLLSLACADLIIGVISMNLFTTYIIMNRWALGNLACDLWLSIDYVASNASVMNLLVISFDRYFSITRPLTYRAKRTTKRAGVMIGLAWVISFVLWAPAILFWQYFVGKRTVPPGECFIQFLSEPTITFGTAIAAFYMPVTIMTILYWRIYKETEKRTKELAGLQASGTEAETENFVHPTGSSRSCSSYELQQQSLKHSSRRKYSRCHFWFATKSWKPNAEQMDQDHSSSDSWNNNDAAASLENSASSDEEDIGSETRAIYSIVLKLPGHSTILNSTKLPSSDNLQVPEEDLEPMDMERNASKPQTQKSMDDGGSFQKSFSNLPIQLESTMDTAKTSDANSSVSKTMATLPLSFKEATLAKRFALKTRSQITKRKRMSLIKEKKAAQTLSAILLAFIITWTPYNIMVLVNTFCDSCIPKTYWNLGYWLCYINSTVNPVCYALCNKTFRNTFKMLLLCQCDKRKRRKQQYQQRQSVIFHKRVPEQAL

For the molecule `OC(CCN1C=NCCC1)(c1ccccc1)C1CCCCC1` (stereo not drawn) [Compound 1, 1-(3-Phenyl-3-cyclohexyl-3-hydroxy)propyl-1,4,5,6-tetrahydropyrimidine hydrochloride], the Kb in assay [1] is 1 nM. In assay [2] (setting [3]), the Kd was found to be 4.2 nM.
On the same counts, the results for `CC1=NCCN1CCC(O)(c1ccccc1)C1CCCCC1` (stereo not drawn) [Compound 2, 1-(3-Phenyl-3-cyclohexyl-3-hydroxy)propyl-2-methyl-2-imidazoline hydrochloride] are 1.7 nM and 3 nM.
On to `NC1=NCC(OC(=O)C2(C3CCCCC3)CCCCC2)CN1` (stereo not drawn) [Compound 15, 2-Amino-1,4,5,6-tetrahydropyrimidin-5-yl 1-cyclohexylcyclohexane-1-carboxylate formate], for which the Kb in assay [1] turned out to be 0.46 nM. Besides, the Kd in assay [2] stood at 2.7 nM.
Regarding `CC1=NCCN1CCCC(O)(c1ccccc1)C1CCCCC1` (stereo not drawn) [Compound 21, 1-(4-Phenyl-4-cyclohexyl-4-hydroxy)butyl-2-methyl-2-imidazoline hydrochloride], the Kb in assay [1] was 3.4 nM. The Kd in assay [2] (setting [3]) was determined as 7.4 nM.
The matching figures for `OC(CCCN1C=NCCC1)(c1ccccc1)C1CCCCC1` (stereo not drawn) [Compound 22, 1-(4-Phenyl-4-cyclohexyl-4-hydroxy)butyl-1,4,5,6-tetrahydropyrimidine hydrochloride]: 1.5 nM and 5 nM.
On the same counts, the results for `OC(CCN1C=NCC1)(c1ccccc1)C1CCCCC1` (stereo not drawn) [Compound 23, 1-(3-phenyl-3-cyclohexyl-3-hydroxy)propyl-2-imidazoline hydrochloride] are 6.2 nM and 14 nM.
